Test results: ChEMBL document CHEMBL4385605, “Synthesis and Structure-Affinity Relationships of Spirocyclic Benzopyrans with Exocyclic Amino Moiety” (J Med Chem, 2019)
pKi: −log10 of the molar value. The source made the active and inactive calls. The rule behind the calls is not given here.

Key:
[1] = target: Sigma intracellular receptor 2 (Homo sapiens, UniProt Q5BJF2); test: Displacement of [3H]-di-o-tolylguanidine from sigma2 receptor in human RT4 cell membranes incubated for 120 mins in the presence of sigma1 receptor ligand (+)-pentazocine by scintillation counting method
Sequence of Sigma intracellular receptor 2 (Homo sapiens, UniProt Q5BJF2) (Q5BJF2 whole entry): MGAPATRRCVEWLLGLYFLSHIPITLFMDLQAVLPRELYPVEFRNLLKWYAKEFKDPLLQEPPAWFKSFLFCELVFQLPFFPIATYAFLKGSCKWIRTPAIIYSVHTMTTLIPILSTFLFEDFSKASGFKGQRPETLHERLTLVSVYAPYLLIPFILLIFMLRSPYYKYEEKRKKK

Sus scrofa = species: Sus scrofa; test: Displacement of [3H]-(+)-MK-801 from PCP binding site of NMDA receptor in pig brain cortex membranes up to 1 uM after 120 mins by scintillation counting analysis; assay type: cell membranes
[2] = target: Mu-type opioid receptor (Cavia porcellus) (UniProt P97266); test: Displacement of [3H]DAMGO from mu opioid receptor in guinea pig brain membranes at 1 uM after 120 mins by scintillation counting analysis relative to control; assay type: cell membranes
Sequence of Mu-type opioid receptor (Cavia porcellus) (P97266 whole entry): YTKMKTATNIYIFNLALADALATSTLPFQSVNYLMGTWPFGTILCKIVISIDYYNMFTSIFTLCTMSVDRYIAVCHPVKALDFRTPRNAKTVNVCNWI

[3] = target: Delta-type opioid receptor (Rattus norvegicus) (UniProt P33533); test: Displacement of [3H]DPDPE from delta opioid receptor in rat membrane at 1 uM after 120 mins by scintillation counting analysis relative to control; assay type: cell membranes
Sequence of Delta-type opioid receptor (Rattus norvegicus) (P33533 whole entry): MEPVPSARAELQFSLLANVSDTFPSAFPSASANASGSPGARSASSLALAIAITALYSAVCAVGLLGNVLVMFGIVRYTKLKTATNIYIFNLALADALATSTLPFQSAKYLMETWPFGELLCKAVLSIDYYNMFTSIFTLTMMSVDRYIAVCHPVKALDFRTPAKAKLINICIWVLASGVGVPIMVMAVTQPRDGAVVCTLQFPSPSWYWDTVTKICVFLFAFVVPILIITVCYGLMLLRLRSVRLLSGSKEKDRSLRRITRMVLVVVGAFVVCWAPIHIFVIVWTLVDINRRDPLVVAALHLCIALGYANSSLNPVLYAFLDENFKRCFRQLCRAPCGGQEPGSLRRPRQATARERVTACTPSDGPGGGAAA

[4] = target: Kappa-type opioid receptor (Cavia porcellus) (UniProt P41144); test: Displacement of [3H]U69,593 from kappa opioid receptor in guinea pig brain membrane at 1 uM after 120 mins by scintillation counting analysis relative to control; assay type: cell membranes
Sequence of Kappa-type opioid receptor (Cavia porcellus) (P41144 whole entry): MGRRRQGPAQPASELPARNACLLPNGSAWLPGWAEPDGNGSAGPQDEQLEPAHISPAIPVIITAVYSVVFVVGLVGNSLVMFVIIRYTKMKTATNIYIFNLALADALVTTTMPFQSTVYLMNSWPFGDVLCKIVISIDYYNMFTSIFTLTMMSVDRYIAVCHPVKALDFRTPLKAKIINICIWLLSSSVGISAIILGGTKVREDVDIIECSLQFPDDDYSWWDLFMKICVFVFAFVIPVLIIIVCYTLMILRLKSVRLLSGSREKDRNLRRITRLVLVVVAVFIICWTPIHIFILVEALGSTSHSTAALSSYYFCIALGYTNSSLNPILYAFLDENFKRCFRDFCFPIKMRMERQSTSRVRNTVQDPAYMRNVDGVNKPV

[5] = Selectivity ratio of Ki for displacement of [3H]DTG from sigma2 receptor in rat liver membranes to Ki for displacement of (+)-[3H]pentazocine from sigma 1 receptor in guinea pig brain cortex membranes; assay type: cell membranes
[6] = target: Sigma non-opioid intracellular receptor 1 (Cavia porcellus, UniProt Q60492); test: Displacement of [3H](+)-pentazocine from sigma 1 receptor in guinea pig brain cortex membranes after 120 mins by scintillation counting analysis; assay type: cell membranes
Sequence of Sigma non-opioid intracellular receptor 1 (Q60492 whole entry): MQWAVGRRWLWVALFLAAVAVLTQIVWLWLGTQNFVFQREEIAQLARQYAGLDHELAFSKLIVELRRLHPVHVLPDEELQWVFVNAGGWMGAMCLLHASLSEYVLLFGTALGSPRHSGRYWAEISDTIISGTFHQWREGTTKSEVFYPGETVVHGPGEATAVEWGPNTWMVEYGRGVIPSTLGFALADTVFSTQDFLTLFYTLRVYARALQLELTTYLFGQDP

[7] = target: T1, Sigma intracellular receptor 2 (Rattus norvegicus, UniProt Q5U3Y7); test: Displacement of [3H]-di-o-tolylguanidine from sigma2 receptor in rat liver membranes incubated for 120 mins in the presence of sigma1 receptor ligand (+)-pentazocine by scintillation counting method; assay type: cell membranes
T1 sequence (Q5U3Y7 whole entry): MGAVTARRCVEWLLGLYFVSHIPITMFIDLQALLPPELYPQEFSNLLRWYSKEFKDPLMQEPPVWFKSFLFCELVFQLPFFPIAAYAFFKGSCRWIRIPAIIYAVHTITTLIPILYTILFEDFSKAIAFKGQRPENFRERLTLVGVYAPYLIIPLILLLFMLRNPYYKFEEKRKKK

Mu-type opioid receptor = Mu-type opioid receptor (Cavia porcellus, UniProt P97266); test: Displacement of [3H]DAMGO from mu opioid receptor in guinea pig brain membranes after 120 mins by scintillation counting analysis; assay type: cell membranes
Sequence of Mu-type opioid receptor (P97266 whole entry): as the sequence (P97266 whole entry) above

[8] = target: Delta-type opioid receptor (Rattus norvegicus, UniProt P33533); test: Displacement of [3H]DPDPE from delta opioid receptor in rat membranes after 120 mins by scintillation counting analysis; assay type: cell membranes
Sequence of Delta-type opioid receptor (P33533 whole entry): as the sequence (P33533 whole entry) above

[9] = target: Kappa-type opioid receptor (Cavia porcellus, UniProt P41144); test: Displacement of [3H]U69,593 from kappa opioid receptor in guinea pig brain membrane after 120 mins by scintillation counting analysis; assay type: cell membranes
Sequence of Kappa-type opioid receptor (P41144 whole entry): as the sequence (P41144 whole entry) above

Structure (SMILES)	pKi [1]	Activity (Sus scrofa)	inhibition [2]	inhibition [3]	inhibition [4]	Ratio Ki [5]	pKi [6]	pKi [7]	pKi (Mu-type opioid receptor)	pKi [8]	pKi [9]
COC1Cc2ccccc2[C@]2(CC[C@H](NCc3ccccc3)CC2)O1 (stereo not given in full)	6.64	inactive	20%	41%	27%						
c1ccc(CN[C@H]2CC[C@]3(CC2)OCCc2ccccc23)cc1			0%	20%	0%	5 to 10	7.01	6.30			
COC1O[C@]2(CC[C@@H](NCC3CCCCC3)CC2)c2ccccc21 (stereo not given in full)	7.96				23%	5 to 10	7.70	7.28	6.30	6.84	
C1=Cc2ccccc2[C@]2(CC[C@H](NCC3CCCCC3)CC2)O1	8.17		15%		18%	5 to 10	8.24	7.17		6.68	
COC1O[C@]2(CC[C@@H](N(C)CC3CCCCC3)CC2)c2ccccc21 (stereo not given in full)	8.12		16%		0%	5 to 10	8.09	7.15		6.25	
COC1Cc2ccccc2[C@]2(CC[C@@H](NCC3CCCCC3)CC2)O1 (stereo not given in full)		inactive				5 to 10	7.72	6.89	6.45	6.64	7.02
C1=Cc2ccccc2[C@]2(CC[C@@H](NCC3CCCCC3)CC2)O1	8.15					5 to 10	7.92	7.28	6.59	6.32	6.22
CCOC1Cc2ccccc2[C@]2(CC[C@@H](NCC3CCCCC3)CC2)O1 (stereo not given in full)	7.80					5 to 10	6.74	6.79	6.73	6.73	7.07
COC1Cc2ccccc2[C@]2(CC[C@H](NCC3CCCCC3)CC2)O1 (stereo not given in full)		inactive		33%	28%	5 to 10	8.24	7.00	6.34		
COC1O[C@]2(CC[C@@H](NCc3ccccc3)CC2)c2ccccc21 (stereo not given in full)						5 to 10	7.30	6.12	6.11	6.18	5.94
CN(CC1CCCCC1)[C@H]1CC[C@]2(CC1)OC=Cc1ccccc12	8.34			38%		5 to 10	8.64	7.48	6.41		
COC1O[C@]2(CC[C@H](NCC3CCCCC3)CC2)c2ccccc21 (stereo not given in full)	7.41					5 to 10	7.72	6.88	6.56	6.94	6.30
CN(CC1CCCCC1)[C@H]1CC[C@@]2(CC1)OCCc1ccccc12	7.92				23%	22	8.10	6.76		6.73	

The remaining compounds from weak to strong by pKi [6], led by results:

pKi [1]	Activity (Sus scrofa)	inhibition [2]	inhibition [3]	inhibition [4]	Ratio Ki [5]	pKi [6]	pKi [7]	pKi (Mu-type opioid receptor)	pKi [8]	pKi [9]	Structure (SMILES)
7.34					5 to 10	7.44	6.51	6.31	6.36	6.13	CCOC1Cc2ccccc2[C@]2(CC[C@H](NCC3CCCCC3)CC2)O1 (stereo not given in full)
7.48			11%	16%	5 to 10	7.74	7.08	6.08			c1ccc2c(c1)CCO[C@]21CC[C@@H](NCC2CCCCC2)CC1
7.03			13%	24%	24	7.82	6.44	6.06			CCOC1Cc2ccccc2[C@]2(CC[C@@H](N(C)CC3CCCCC3)CC2)O1 (stereo not given in full)
8.10					5 to 10	7.82	7.00	6.94	6.75	6.63	c1ccc2c(c1)CCO[C@]21CC[C@H](NCC2CCCCC2)CC1
7.85				18%	5 to 10	8.09	7.38	6.53	6.45		CCOC1Cc2ccccc2[C@]2(CC[C@H](N(C)CC3CCCCC3)CC2)O1 (stereo not given in full)
8.03					21	8.10	6.79	6.64	6.60	6.19	COC1O[C@]2(CC[C@H](N(C)CC3CCCCC3)CC2)c2ccccc21 (stereo not given in full)
7.80			11%		5 to 10	8.31	7.09	6.79			CN(CC1CCCCC1)[C@H]1CC[C@@]2(CC1)OC=Cc1ccccc12
8.26		13%		10%	5 to 10	8.51	7.52		6.25		CN(CC1CCCCC1)[C@H]1CC[C@]2(CC1)OCCc1ccccc12
